Assay results from patent US9394520B2, “Expansion of hematopoietic stem cells” (University of Rochester, priority 2006, dated 2016).
Entries after “also recorded” stand apart in the source; their conditions may differ.

Columns and labels:
Jagged1 [1] = experiment: Jagged1 mRNA by real time RT-PCR in UMR106 cells; type: cell-based
Protocol: UMR 106 cells were serum starved for 24 hours and then treated with a single dose of vehicle (controls) or PGE2 at a concentration of 10^-7 M. RNA was collected from both control and treated samples to assess the fold change in Jagged1 mRNA by real time RT-PCR analysis corrected for by beta-actin. FIG. 1B is a Western blot showing total protein that was collected from both control and treated samples exposed to Jagged1 antibody, C20. Positive control (+ctr) was provided by HS27a cells, a human stromal cell line with high levels of Jagged1 protein, while HS5 cells from a human stromal cell line with minimal Jagged1 levels were used as a negative control. […] UMR106 cells were serum starved for 24 hours. They were pre-treated with H89 for 30 minutes followed by a single dose of PGE2 at 10^-7 M or vehicle. RNA was collected from both control and treated samples to assess the fold change in Jagged1 RNA by real time RT-PCR analysis corrected for by β-actin. […] UMR106 cells were serum starved for 24 hours. […] Total protein was collected from both PGE2 and vehicle treated samples for Western blot analysis with Jagged1 antibody C-20. UMR106 cells were grown in DMEM supplemented with 1.5 g/l sodium bicarbonate, 10% FBS, penicillin (100 U/ml), streptomycin (100 U/ml). After three days of growth the cells were 80% confluent and media was replaced with serum-free media. After 24 hr in serum-free media, PGE2 was added in noted concentrations. UMR 106 cells were treated with the Protein Kinase A (PKA) inhibitors H89 (0.5 hr prior to PGE2 treatment), and myristoylated PKI (0.5 hr prior to PGE2 treatment). […] At the designated times, total RNA and protein were harvested. Total RNA was extracted and analyzed by real time RT-PCR, normalizing for β-actin expression and t=0. Total protein was analyzed by Western blots performed using the […] system (Invitrogen, Carlsbad, Calif.). Blots were probed with Jag1 c-20 antibody (Santa Cruz Biotechnology, Inc., Santa Cruz, Calif.), and the loading control was B-actin.

Jagged1 [2] = experiment: Jagged1 protein by Western blot in UMR106 cells; type: cell-based; conditions: UMR106 cells, PKI 200 μg/ml pre-treatment, then PGE2 10^−7 M
Protocol: UMR 106 cells were serum starved for 24 hours and then treated with a single dose of vehicle (controls) or PGE2 at a concentration of 10^-7 M. RNA was collected from both control and treated samples to assess the fold change in Jagged1 mRNA by real time RT-PCR analysis corrected for by beta-actin. FIG. 1B is a Western blot showing total protein that was collected from both control and treated samples exposed to Jagged1 antibody, C20. Positive control (+ctr) was provided by HS27a cells, a human stromal cell line with high levels of Jagged1 protein, while HS5 cells from a human stromal cell line with minimal Jagged1 levels were used as a negative control. FIG. 2A is a graph showing that inhibition of PKA blocks PGE2-dependent increase of Jagged1 in UMR 106 cells. UMR106 cells were serum starved for 24 hours. They were pre-treated with H89 for 30 minutes followed by a single dose of PGE2 at 10^-7 M or vehicle. RNA was collected from both control and treated samples to assess the fold change in Jagged1 RNA by real time RT-PCR analysis corrected for by β-actin. […] UMR106 cells were serum starved for 24 hours. […] Total RNA was extracted and analyzed by real time RT-PCR, normalizing for β-actin expression and t=0. Total protein was analyzed by Western blots performed using the […] system (Invitrogen, Carlsbad, Calif.). […]

Q: How did the “PGE2-dependent Jagged1 mRNA increase in presence of PKA inhibitor” value (Jagged1 [1]; UMR106 cells, H89 pre-treatment 30 minutes, then PGE2 10^−7 M) turn out when `O=S(=O)(NCCNC/C=C/c1ccc(Br)cc1)c1cccc2cnccc12` [H89] was run?
A: blocked; also recorded: inhibited

Q: How did the “Jagged1 increase by cAMP analogs that activate PKA” value (Jagged1 [1]; UMR106 cells) turn out when `CCCC(=O)Nc1ncnc2c1ncn2[C@@H]1O[C@@H]2COP(=O)(O)O[C@H]2[C@H]1OC(=O)CCC` [dibutyryl-cAMP, n6 2′-0-dibutyryladenosine-3′, 5′-cyclic monophpsphate] was run?
A: sufficient to increase Jagged1

Q: How did the “PGE2-dependent Jagged1 protein increase in presence of PKA inhibitor” value (Jagged1 [2]) turn out when “myristoylated PKA Inhibitory Peptide (14-22) [PKI]” was run?
A: blocked; also recorded: inhibited

Q: Which “PGE2-induced Jagged1 expression” value (Jagged1 [1]; UMR 106 cells, butaprost 10 μM) does the source give for `CCCC1([C@H](O)C/C=C/[C@H]2[C@H](O)CC(=O)[C@@H]2CCCCCCC(=O)OC)CCC1` [Butaprost, butaprost] here?
A: inhibited

Q: With `O=C(O)CC/C=C\CC[C@H]1[C@H](N2CCOCC2)C(=O)C[C@H]1OCc1ccc(-c2ccccc2)cc1` [AH23848] as the compound, how does the “PGE2-induced expression of Jagged1” value (Jagged1 [1]; osteoblastic cells pretreated 30 minutes with 30 μM AH23848, then PGE2) read?
A: did not inhibit
